Entries after “also recorded” stand apart in the source; their conditions may differ.
Columns and labels:
[1] = tested on: rats; assay: Acute LD50, one-time feeding study of rats; format: in vivo, rat
Procedure: Acute LD50 measurements for a one-time feeding study of rats were determined over a 21 day period for both the a-branched perfluorocarboxylate salt, C7 F15 CF(CF3)COO^- NH4^+, and its straight chain isomer, CF3 (CF2)8 COO^- NH4^+.

[2] = tested on: rats; assay: Monitoring of volatile degradation products exhaled by a dosed rat (uptake desiccator jar chamber); format: in vivo
Procedure: Additional biological testing of C7F15 CF(CF3)COO^- NH4^+ in rats was conducted using the following test apparatus. An uptake desiccator jar chamber was designed with top and bottom portions, the top portion equipped with an inlet port, an outlet port, oxygen monitor and pressure gage. An oxygen gas tank supplied oxygen into the inlet port, and the oxygen level in the chamber was maintained at a normal ambient level as measured by the oxygen monitor and pressure gage. The outlet port was connected in series with a carbon dioxide scrubber and particulate filter, which in turn was connected to a loop containing a stainless steel bellows pump operating at about 2 L/min. Most of the gas in the loop was recycled into the inlet port, but about 100 mL/min was directed through a secondary loop to a gas chromatograph equipped with a 0.5 mL gas sampling loop.
A rat dosed at 500 mg/kg was placed in the bottom portion of the chamber, the top portion was attached, and the assembled chamber was placed in an ice-filled pan to allow for the condensation of water. The oxygen flow was started, and the exhaust gases were monitored for the presence of CF3 CF=CF(C6 F13) and C7 F15 CFHCF3, aqueous degradation products of C7 F15 CF(CF3)COOH, using known standards of this olefin and hydride in the gas chromatograph. […] After 24 minutes, one slight chromatographic peak was noted, corresponding to the monohydride. After 92 minutes, the peak became noticeably larger and a second peak formed, corresponding to the olefin.

[3] = Thermogravimetric analysis of neat perfluorocarboxylate salts; format: physicochemical; settings: neat salt, 10° C./min, nitrogen
Excerpt: Thermal degradation measurements were made on a series of neat perfluorocarboxylate salts, including several ax-branched open chain structures (Examples N2-N9), a primarily linear open chain structure (Example N10--Fluorad™ FC-143 Fluorochemical Surfactant, commercially available from 3M Company, St. Paul, Minn.), and a closed chain (i.e., cyclic) structure (Example N11--made by the electrochemical fluorination of benzoic acid and hydrolysis in the presence of KOH, as described in U.S. Pat. No. 2,567,011 (Diesslin et al.)).
The perfluorocarboxylate salts were tested using a Perkin-Elmer TGA 7 thermogravimetric analysis apparatus and a salt sample size of approximately 5 mg, a heating rate of 10° C./min, and a nitrogen gas flow rate of 40-45 mL/min. Using the TGA 7 software, the following temperatures were recorded: (1) the onset temperature of decomposition, (2) the temperature at which 50% of the sample weight was lost, and (3) the temperature at which 90% of the sample weight was lost.

[4] = Surface tension and critical micelle concentration (CMC) of aqueous surfactant solutions; format: physicochemical; settings: Table 5; deionized water, at CMC
Excerpt: Critical Micelle Concentration (CMC): The critical micelle concentration is defined as the concentration at which further surface tension is no longer lowered with increasing levels of surfactant. […] Surface tension is then plotted vs. log concentration and the data points are connected. The resulting curve has a nearly horizontal flat portion at concentrations above the CMC and has a negative steep slope at concentrations below the CMC. The CMC is defined as the lowest surfactant concentration in the horizontal flat portion of the curve.
(§1) Then the critical micelle concentration (CMC) was determined for each surfactant.
as §1

[5] = Emulsion polymerization of hexafluoropropylene and vinylidene fluoride with surfactant as emulsifier; settings: 3500 ppm emulsifier, 78° C.
Excerpt: The following procedure was used to evaluate C7 F15 CF(CF3)COO^- NH4^+ (from Ex. M1) as an emulsifier to copolymerize hexafluoropropylene (HFP) and vinylidene fluoride.
A 1 gallon, vertically agitated stainless steel reactor with pressure and temperature controls was evacuated and twice purged with nitrogen. Using an isolated vacuum, a solution comprised of 2 g of ammonium persulfate (initiator) and 6 g of dipotassium phosphate dissolved in 2800 g of deionized water was introduced into the reactor. The remaining vacuum on the reactor was vented with nitrogen, and the solution was degassed twice under agitation using alternate vacuum and nitrogen purges. […]
The resulting latex polymer was drained from the reactor, and percent solids of the latex was determined to be 25% by weight as measured by drying 10 g of latex in a forced air oven for 16 hours at 105° C.
The reactor body was separated from the reactor head, and a visual inspection of the reactor was made to determine the amount of coagulated polymer in the reactor (the amount should be minimal in a good polymerization reaction). A qualitative rating was assessed, ranging from "none" to "little" to "some." […]
Particle size in the latex was determined using […] on a Coulter sub-micron particle size analyzer. […]

[6] = Stability of esters to concentrated aqueous ammonium hydroxide; format: physicochemical; settings: stirred 2 days (comparable conditions)
Excerpt: The acrylate and methacrylate esters from Examples D1-D11 were fully recoverable with essentially no degradation after being stirred with concentrated aqueous ammonium hydroxide for a period of 2 days.

[7] = Storage of 5% aqueous solution at room temperature; format: physicochemical
Procedure: The α-branched open chain ammonium salt compounds from Examples N3-N6 were dissolved in deionized water at a concentration of 5% by weight (0.5 g ammonium salt in 10 mL water) and were stored at room temperature.

[8] = literature; cited from earlier work
[9] = Thermal degradation in aqueous media; format: physicochemical
Procedure: The thermal degradation of an aqueous a-branched perfluoroalkylcarbonyl fluoride and the characterization of the products produced from the degradation were carried out using the following procedure. 8 g of C7 F15 CF(CF3)COF (made as in Example A4) was dispersed in deionized water and was refluxed for 2 hours. 5.7 g of volatile degradation products were then collected by azeotropic distillation using a Dean-Stark apparatus.
The thermal degradation of C7 F15 CF(CF3)COF (from Example A4) dispersed in water was also carried out by heating the aqueous mixture for several hours at approximately 80° C.

## O=C(O)C(F)(C(F)(F)F)C(F)(F)C(F)(F)C(F)(F)C(F)(F)C(F)(F)C(F)(F)C(F)(F)F (centres unmarked) [Example M14, C7 F15 CF(CF3)COO^- H4 N^+]
[1]; one-time feeding, rats
  time after which rats began regaining weight: 3 days
  time of deaths from toxic doses: 2 to 3 days
  wasting syndrome: No wasting syndrome was noted
[1]; one-time feeding, rats, listed as C7 F15 CF(CF3)COO^- NH4^+
  acute toxicity (in words): relatively low toxicity; also recorded: only slightly toxic
[2]; rat dosed at 500 mg/kg
  post-exposure toxicity (death) or wasting syndrome: no evidence of toxicity (death) or evidence of wasting syndrome
  time at which monohydride peak was noted in exhaust gases: 24 min
  time at which second peak (olefin) formed in exhaust gases: 92 min
[2]; rat dosed at 500 mg/kg, 217 minutes
  monohydride and olefin peaks in exhaust gases after 217 minutes: both peaks became significantly larger
[2]; rat dosed at 500 mg/kg, initially
  olefin or hydride in exhaust gases, initially: no olefin or hydride were detected
[2]; rat, in words
  metabolism and elimination: metabolized by the rat to volatile metabolites which were eliminated from the rat via transpiration
[3]
  onset temperature of decomposition: 151 °C
  temperature for 50% loss: 163 °C
  temperature for 90% loss: 174 °C
[4]
  Surf. Tens. (surface tension at the CMC): 16.5 dynes/cm
[5]
  Latex Stability: 0

## O=C(O)C(F)(C(F)(F)F)C(F)(F)C(F)(F)C(F)(F)C(F)(F)C(F)(F)C(F)(F)F (centres unmarked) [Example M16, C6 F13 CF(CF3)COO^- H4 N^+]
[3]
  onset temperature of decomposition: 165 °C
  temperature for 50% loss: 179 °C
  temperature for 90% loss: 193 °C
[4]
  Surf. Tens. (surface tension at the CMC): 17.9 dynes/cm

## C=CC(=O)OCCOC(=O)C(F)(F)C(F)(F)C(F)(F)C(F)(F)C(F)(F)C(F)(F)C(F)(F)F [C7 F15 COOCH2 CH2 OCOCH=CH2]
[6]
  hydrolytic stability in concentrated aqueous ammonium hydroxide: readily hydrolyzed

## O=C(O)C(F)(F)C(F)(F)C(F)(F)C(F)(F)C(F)(F)C(F)(F)C(F)(F)F [FC-143, C7 F15 COO^- H4 N^+]
[7]
  degradation over 1 year (in words): no signs of degradation
[3]
  onset temperature of decomposition: 173 °C
  temperature for 50% loss: 188 °C
  temperature for 90% loss: 202 °C
[4]
  Surf. Tens. (surface tension at the CMC): 21.5 dynes/cm

## O=C(O)C(F)(F)C(F)(F)C(F)(F)C(F)(F)C(F)(F)C(F)(F)C(F)(F)C(F)(F)C(F)(F)F [C9 F19 COO^- NH4^+, CF3 (CF2)8 COO^- NH4^+, reference compound]
[1]; LD50 comparison
  toxicity relative to the α-branched isomer: ca. 10 times
[1]; one-time feeding, rats
  acute toxicity (in words): moderately toxic
  wasting syndrome: Wasting syndrome was observed
[8]
  toxicity (in words): moderately toxic

## O=C(F)C(F)(C(F)(F)F)C(F)(F)C(F)(F)C(F)(F)C(F)(F)C(F)(F)C(F)(F)C(F)(F)F (centres unmarked) [Example A1, C7 F15 CF(CF3)COF]
[9]; aqueous mixture heated several hours at approximately 80° C.
  degradation products (in words): The same volatile products were formed
[9]; dispersed in deionized water, refluxed 2 hours, C6 F13 CF=CFCF3
  olefin in degradation products: 15%
[9]; dispersed in deionized water, refluxed 2 hours, C7 F15 CFHCF3
  monohydride in degradation products: 85%
[9]; from 8 g, refluxed 2 hours in deionized water
  volatile degradation products collected: 5.7 g

## O=C(O)C(F)(C(F)(F)F)C(F)(F)C(F)(F)C(F)(F)C(F)(F)C(F)(F)C(F)(F)C(F)(F)F (centres unmarked) [Example M1, C7 F15 CF(CF3)COOH]
[9]; aqueous solution, carried out in a similar way
  degradation products (in words): the same monohydride and olefin

## O=C(O)C(F)(C(F)(F)F)C(F)(F)C(F)(F)C(F)(F)C(F)(F)C(F)(F)C(F)(F)C(F)(F)C(F)(F)F (centres unmarked) [Example M17, C8 F17 CF(CF3)COO^- H4 N^+]
[3]
  onset temperature of decomposition: 142 °C
  temperature for 50% loss: 162 °C
  temperature for 90% loss: 184 °C
[4]
  Surf. Tens. (surface tension at the CMC): 14.7 dynes/cm
